# Data taken from article PMC3471809 (Bioorganic & medicinal chemistry, 2012).
# Like-named read-outs stand apart in the source and are kept apart here.
# Columns and labels:
# S. aureus PlsY (SaPlsY) [1] = target: T1, S. aureus PlsY (SaPlsY) (Staphylococcus aureus, UniProt P67164); test: biochemical; assay type: E. coli FB23281 (delta plsY) membranes
# T1 sequence (P67164 1-202): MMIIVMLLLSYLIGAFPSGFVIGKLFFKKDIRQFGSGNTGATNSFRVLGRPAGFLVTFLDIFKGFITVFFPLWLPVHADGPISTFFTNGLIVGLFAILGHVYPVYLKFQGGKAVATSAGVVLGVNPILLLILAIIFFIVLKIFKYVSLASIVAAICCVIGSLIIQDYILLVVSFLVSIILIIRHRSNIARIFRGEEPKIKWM
# S. pneumoniae R6 = test: microbe, parasite or virus in culture; details: Streptococcus pneumoniae, R6, read-out: MIC
# S. aureus PlsY (SaPlsY) [2] = target: T1, S. aureus PlsY (SaPlsY); test: biochemical; assay type: E. coli FB23281 (delta plsY) membranes; remark: listed apart in the source
Structure (SMILES),MIC (S. pneumoniae R6),also measured
CCCCCCCCCCCCCCCC(=O)NS(=O)(=O)OC1CCNCC1 [compound 6],–,IC50 (S. aureus PlsY (SaPlsY) [1]): > 100 µM
"CCCCCCCCCCCCCCCC(=O)NS(=O)(=O)Oc1ccc(CC(=O)OC)cc1 [compound 14, Methyl 2-(4-(N-palmitoylsulfamoyloxy)phenyl)acetate]",100 µg/mL,–
"CCCCCCCCCCCCCCCC(=O)NS(=O)(=O)Oc1ccc(C(=O)OCC)cc1 [compound 15, Ethyl 4-(N-palmitoylsulfamoyloxy)benzoate]",200 µg/mL,–
CCCCCCCCCCCCCCCC(=O)NS(=O)(=O)Oc1ccc(CCN)cc1 [compound 16],–,IC50 (S. aureus PlsY (SaPlsY) [2]): > 100 µM
"CCCCCCCCCCCCCCCC(=O)NS(=O)(=O)Oc1ccc(-c2ccc([N+](=O)[O-])cc2)cc1 [compound 18, 4'-nitrobiphenyl-4-yl palmitoylsulfamate]",100 µg/mL,–
"CCCCCCCCCCCCCCCC(=O)NS(=O)(=O)Oc1ccc2c(c1)OCO2 [compound 19, Benzo[d][1,3]dioxol-5-yl palmitoylsulfamate]",200 µg/mL,–
"CCCCCCCCCCCCCCCC(=O)NS(=O)(=O)Oc1ccc2ncccc2c1 [compound 20, Quinolin-6-yl palmitoylsulfamate]",> 200 µg/mL,–
CCCCCCCCCCCCCCCC(=O)NS(=O)(=O)Oc1ccc2c(OS(N)(=O)=O)coc2c1 [compound 21],> 200 µg/mL,–
